According to PubChem BioAssay (NCI):
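Where inhibition never reached the appropriate level, the endpoint shown equals the highest concentration tested. Otherwise, values were interpolated linearly from a five-concentration, 48-hour dose response in 96-well plates. GI50 is the concentration that inhibits growth by half. TGI: concentration producing complete growth inhibition.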

Experiments:
Assay in all cases: NCI tumour cell line growth inhibition, 48 h
A498 renal = tested on: A498 renal
A549 NSCLC = tested on: A549 NSCLC
HCT-116 colon = tested on: HCT-116 colon
NCI-H226 lung = tested on: NCI-H226 lung
RPMI-8226 leukemia = tested on: RPMI-8226 leukemia
SF-295 CNS = tested on: SF-295 CNS
SK-MEL-2 melanoma = tested on: SK-MEL-2 melanoma
SK-MEL-28 melanoma = tested on: SK-MEL-28 melanoma

Structure (SMILES) | TGI (A498 renal) [µM] | TGI (A549 NSCLC) [µM] | TGI (HCT-116 colon) [µM] | TGI (NCI-H226 lung) [µM] | TGI (RPMI-8226 leukemia) [µM] | TGI (SF-295 CNS) [µM] | TGI (SK-MEL-2 melanoma) [µM] | TGI (SK-MEL-28 melanoma) [µM] | GI50 (A498 renal) [µM] | GI50 (NCI-H226 lung) [µM] | GI50 (RPMI-8226 leukemia) [µM] | GI50 (SF-295 CNS) [µM] | GI50 (SK-MEL-2 melanoma) [µM] | GI50 (SK-MEL-28 melanoma) [µM]
CCC1(CN(C)C)CC/C(=C\c2ccc(OC)c(OC)c2)C1=O (centres undefined) | > 100 | > 100 | > 100 | > 100 | > 69.1 | > 100 | > 100 | > 100 |  |  |  |  |  | 
O=c1c2cc3c(cc2c2cccc4c2n1CCC4)OCO3 |  | > 100 | 71.1 | > 100 | > 100 | > 100 | > 100 | > 100 |  |  |  |  |  | 
COc1cc2ccnc3c(=C(SC)SC)c(=O)c(c1OC)c23 |  | > 100 |  |  | 15.9 | > 100 | 38.3 | 26 |  |  |  |  |  | 
O=c1cccc(-c2cccc(=O)[nH]2)[nH]1 |  | > 100 | > 100 | > 100 | > 100 | > 100 |  | > 100 |  |  |  |  |  | 
N#Cc1cccc(C=NC23CC4CC(CC(C4)C2)C3)c1 | > 100 | > 100 | > 100 | > 100 | > 100 | > 100 | > 100 | > 100 |  |  |  |  |  | 
OCCN(CCO)c1cccc(N(CCO)CCO)n1 | > 100 | > 100 | > 100 |  | > 100 | > 100 | > 100 | > 100 |  |  |  |  |  | 
COc1cccc(SSc2cccc(OC)c2C(=O)O)c1C(=O)O | > 100 | > 100 | > 100 | > 100 | > 100 | > 100 | > 100 | > 100 |  |  |  |  |  | 
Cc1ccc(S(=O)(=O)N/N=C/C(C)C)cc1 | > 100 | > 100 | > 100 |  | > 100 | > 100 | > 100 |  |  |  |  |  |  | 
CC(=O)NC(C=O)C(O[C@H](C)C(=O)NC(C)C(=O)NC(CCC(N)=O)C(=O)OCc1ccccc1)C(O)C(O)COC(=O)CCNc1c2ccccc2nc2cccc([N+](=O)[O-])c12 (some centres undefined) | > 100 | 5.13 | 2.69 | 6.89 | 4.39 | 38.5 | 3.05 | 11.6 |  |  |  |  |  | 
c1ccc(OCc2nnc3n2N=C(c2ccccc2)CS3)cc1 | > 100 | > 100 | > 100 | > 100 | > 100 | > 100 | > 100 | > 100 |  |  |  |  |  | 
Cc1ccc(NC(=O)CCc2n[nH]c(=S)o2)cc1 | > 100 | > 100 | > 100 | > 100 |  | > 100 |  | > 100 |  |  |  |  |  | 
CC(=O)c1ccc(NC(=O)COC(=O)c2cccc3c(=O)c4ccccc4[nH]c23)cc1 | > 100 | > 100 | 42.8 | 46.2 |  | 49.2 |  | > 100 |  |  |  |  |  | 
CCCCCCCCCCCc1c(O)c(=O)c2c(oc3c(=O)c(CCCCCCCCCCC)c(O)c(=O)c3n2-c2ccc(N(C)C)cc2)c1=O | 36.9 | 52.4 | 36.6 | 36.3 | > 100 | 46.2 | 50.4 | 40 |  |  |  |  |  | 
Cc1c2c(c(C)c3c1[nH]c1ccccc13)CN(C)CC2 | 59.4 | > 100 | 29.4 | 56.5 | 67 | 31.7 | 31.1 | 36.2 |  |  |  |  |  | 
NC(=O)NC1C(C(=O)O)N(Cc2ccccc2)C(=O)N1Cc1ccccc1 (centres undefined) |  | > 100 | > 100 | > 100 | > 100 | > 100 | > 100 | > 100 |  |  |  |  |  | 
COc1ccc(C(=O)C#Cc2c[nH]c(=O)[nH]c2=O)cc1 | 49.9 | > 59.6 | 18.3 | 42.4 | 41.6 | 96.2 | 21.4 | 30.1 |  |  |  |  |  | 
COCCOCCOCCOc1cccc2c1C(=O)c1cccc(OCCOCCOCCOC)c1C2=O | > 100 | > 100 | > 100 |  | > 100 | > 100 |  | > 100 |  |  |  |  |  | 
O=C1OC(=O)C2C3C=CC(C12)C1C2C=CC2C31 (centres undefined) | > 100 | > 100 | > 100 | > 100 |  | > 100 | > 100 | > 100 |  |  |  |  |  | 
COc1cccc(N2C(=O)C3C4C=C5c6ccccc6N(c6ccccc6)C5(C3C2=O)[C@H]2C(=O)N(c3cccc(OC)c3)C(=O)[C@@H]42)c1 (some centres undefined) | > 100 | > 100 | > 100 | > 100 | > 100 | > 100 | > 100 |  |  |  |  |  |  | 
COC(=O)Cc1cc(=O)[nH]c2c1C(=O)CCC2 |  | > 100 |  | > 100 | > 100 | > 100 | > 100 | > 100 |  |  |  |  |  | 
CC([O-])=C1C(=O)c2ccccc2C1=O.CC([O-])=C1C(=O)c2ccccc2C1=O.CC[O-].CC[O-].[Ti+4] | > 100 |  |  | > 100 | > 100 | > 100 | > 100 | > 100 | > 100 | > 100 | > 100 | > 100 | > 100 | > 100
O=C1CCCCC12CCC/C2=N\O (centres undefined) | > 100 | > 100 | > 100 | > 100 | > 100 |  | > 100 | > 100 |  |  |  |  |  | 
